Measured values reported in US12516058B2, “Small-molecule compounds for controlling endosomal toll-like receptors and therapeutic agent for autoimmune diseases using same” (priority 2020, dated 2026).

Molecular target: T1, TLR8 (Homo sapiens, UniProt Q9NR97)
T1 construct: endogenous in cells; host or cells: THP-1 (PMA-differentiated)
T1 sequence (Q9NR97 27-1041): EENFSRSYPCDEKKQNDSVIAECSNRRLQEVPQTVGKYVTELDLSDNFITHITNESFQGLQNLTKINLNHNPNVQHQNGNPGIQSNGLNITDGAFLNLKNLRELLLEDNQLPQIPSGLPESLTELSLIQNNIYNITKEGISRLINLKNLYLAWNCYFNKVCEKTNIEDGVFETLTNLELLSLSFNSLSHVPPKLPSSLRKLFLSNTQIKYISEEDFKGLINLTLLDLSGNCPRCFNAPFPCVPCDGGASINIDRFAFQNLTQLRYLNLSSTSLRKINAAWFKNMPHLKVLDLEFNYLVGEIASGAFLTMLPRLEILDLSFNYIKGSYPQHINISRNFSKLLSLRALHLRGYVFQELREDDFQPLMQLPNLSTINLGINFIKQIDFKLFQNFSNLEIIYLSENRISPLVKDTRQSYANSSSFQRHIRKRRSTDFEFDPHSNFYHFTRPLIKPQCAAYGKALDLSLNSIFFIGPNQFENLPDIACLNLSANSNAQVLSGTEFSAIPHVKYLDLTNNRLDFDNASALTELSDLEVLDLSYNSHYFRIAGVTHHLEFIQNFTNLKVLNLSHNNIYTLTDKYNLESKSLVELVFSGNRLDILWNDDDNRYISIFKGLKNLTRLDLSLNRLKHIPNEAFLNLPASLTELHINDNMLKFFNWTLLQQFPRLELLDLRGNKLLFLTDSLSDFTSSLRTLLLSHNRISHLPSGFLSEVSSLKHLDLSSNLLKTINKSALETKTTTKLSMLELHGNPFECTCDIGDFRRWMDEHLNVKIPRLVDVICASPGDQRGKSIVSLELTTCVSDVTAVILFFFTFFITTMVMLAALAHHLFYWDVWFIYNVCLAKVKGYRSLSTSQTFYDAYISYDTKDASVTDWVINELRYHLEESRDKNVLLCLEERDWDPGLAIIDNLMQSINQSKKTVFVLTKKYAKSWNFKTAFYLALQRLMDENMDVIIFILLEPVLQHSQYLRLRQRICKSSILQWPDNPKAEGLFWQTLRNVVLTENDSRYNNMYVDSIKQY
Test: TNF-α secretion ELISA after TLR8 agonist TL8-506 in PMA-differentiated THP-1 cells
Assay type: cell-based
Conditions: SK01, TL8-506 4 h
Description: FIGS. 5A to 5C show the inhibitory activities of SK01 on TLRs (TLR1/2, TLR2/6 and TLR4) exposed to the cell surface, and FIGS. 5D to 5G show the inhibitory activities of SK01 against endosome TLRs (TLR3, TLR7, TLR8 and TLR9), wherein RAW 264.7 cells were treated at predetermined concentrations with a negative control, a positive control (only ligand), additional positive control (ligand and 0.25% DMSO), or SK01 for 1 hour, and then stimulated with TLR-specific agonists for 4 or 24 hours (TLR3 only), a human monocytic cell line (THP-1) was used for TLR8 and THP-1 cells were treated with phorbol 12-myristate 13-acetate for 48 hours to induce cell differentiation, then treated with SK01 for 1 hour, and was treated with the TLR8 agonist TL8-506 for 4 hours, and the level of TNF-α secretion was measured by ELISA.

Structure (SMILES): Cc1c(C)n(CCN(C)C)c2nc3c(c(N)c12)CCCCC3 [SK01, 1-(2-(dimethylamino)ethyl)-2,3-dimethyl-1,5,6,7,8,9-hexahydrocyclohepta[b]pyrrolo[3,2-e]pyridin-4-amine]
- activity against TLR8: no activity
